Paper PMC11915801, “Evolutionary trajectory of bacterial resistance to antibiotics and antimicrobial peptides in Escherichia coli” (mSystems, 2025)
Read-outs that look alike come from different tables or passages of the source. Where a SMILES comes first, the peptide text is derived from it.

Key:
Assay in all cases: microbe, parasite or virus in culture
Assay type in all cases: cell-based, Escherichia coli
E. coli K-12 MG1655 = details: for MIC: Escherichia coli
Method: (§1) The broth microdilution method was used to measure the MIC values of antibiotics and peptides according to the Clinical and Laboratory Standards Institute guidelines. The MIC value is defined as the lowest drug concentration without visible bacteria.
Eight antibiotics and ten AMPs at the sub-inhibitory concentration were prepared. A 300-µL system, including 260 µL of MH broth, 30 µL of prepared drug, and 10 µL of bacterial culture, was used for resistance passages. After 12 h of incubation at 37℃ and 200 rpm, 10 µL of the above bacterial culture was added into the new sterile drug-containing broth. MIC values of bacterial culture were determined. The drug concentration was adjusted according to the MIC value change until the end of the 120 passages.

CHL80 (evolved MG1655) = details: broth microdilution, chloramphenicol-evolved strain
Source text: (§2) To ensure the stable resistance evolution and inheritance of MG1655 under different drugs, we randomly selected three monoclonals from the evolved strains. The final antibiotic-evolved strains were designated as AMP120, AZI120, CHL80, CIP120, DOX120, KAN80, NIT70, and TMP30, while the final AMP-evolved strains were named COL120, Ind120, Omi120, Pex120, PGLA120, Pleu120, R8120, SAAP120, LI120, and SLAP120.
as §1

TMP30 (evolved MG1655) = details: broth microdilution, trimethoprim-evolved strain
Source text: as §2, §1

COL120 (evolved MG1655) = details: broth microdilution, colistin-evolved strain
Source text: as §2, §1

AMP120 (evolved MG1655) = details: broth microdilution, ampicillin-evolved strain
Source text: as §2, §1

KAN80 (evolved MG1655) = system: KAN80 (evolved MG1655)
Source text: as §2, §1

DOX120 (evolved MG1655) = details: broth microdilution, doxycycline-evolved strain
Source text: as §2, §1

AZI120 (evolved MG1655) = details: broth microdilution, azithromycin-evolved strain
Source text: as §2, §1

NIT70 (evolved MG1655) = details: broth microdilution, nitrofurantoin-evolved strain
Source text: as §2, §1

CIP120 (evolved MG1655) = details: broth microdilution, ciprofloxacin-evolved strain
Source text: as §2, §1

O=C(N[C@H](CO)[C@H](O)c1ccc([N+](=O)[O-])cc1)C(Cl)Cl [CHL, Chloramphenicol]
2 µg/mL: MIC (KAN80 (evolved MG1655); Escherichia coli, MG1655, broth microdilution, kanamycin-evolved strain)
512 µg/mL: MIC (E. coli K-12 MG1655; MG1655, as E2, generation 80, read-out: MIC of MG1655 under the pressure of the same drug, generation 80) | MIC (CHL80 (evolved MG1655); Escherichia coli, MG1655)
8 µg/mL: MIC (E. coli K-12 MG1655; MG1655, 12 h, read-out: MIC of MG1655 under the pressure of the same drug, generation 10) | MIC (E. coli K-12 MG1655; MG1655, read-out: MIC of MG1655 under the pressure of the same drug, generation primary) | MIC (TMP30 (evolved MG1655); Escherichia coli, MG1655) | MIC (COL120 (evolved MG1655); Escherichia coli, MG1655) | MIC (AZI120 (evolved MG1655); Escherichia coli, MG1655) | MIC (NIT70 (evolved MG1655); Escherichia coli, MG1655)
256 µg/mL: MIC (E. coli K-12 MG1655; MG1655, as E2, generation 60, read-out: MIC of MG1655 under the pressure of the same drug, generation 60) | MIC (E. coli K-12 MG1655; MG1655, as E2, generation 70, read-out: MIC of MG1655 under the pressure of the same drug, generation 70)
16 µg/mL: MIC (E. coli K-12 MG1655; MG1655, as E2, generation 20, read-out: MIC of MG1655 under the pressure of the same drug, generation 20) | MIC (AMP120 (evolved MG1655); Escherichia coli, MG1655)
exceeding fourfold: collateral sensitivity of KAN80 (fold change of MIC vs wild-type MG1655) (KAN80 (evolved MG1655); MIC of KAN80 compared with MG1655)
32 µg/mL: MIC (E. coli K-12 MG1655; MG1655, as E2, generation 30, read-out: MIC of MG1655 under the pressure of the same drug, generation 30) | MIC (CIP120 (evolved MG1655); Escherichia coli)
64 µg/mL: MIC (E. coli K-12 MG1655; MG1655, as E2, generation 40, read-out: MIC of MG1655 under the pressure of the same drug, generation 40) | MIC (DOX120 (evolved MG1655); Escherichia coli, MG1655)
128 µg/mL: MIC (E. coli K-12 MG1655; MG1655, as E2, generation 50, read-out: MIC of MG1655 under the pressure of the same drug, generation 50)

CC(C)C[C@H](NC(=O)[C@H](Cc1ccc(O)cc1)NC(=O)[C@H](Cc1c[nH]cn1)NC(=O)[C@@H](NC(=O)[C@H](CC(C)C)NC(=O)[C@H](C)NC(=O)[C@H](C)NC(=O)[C@H](CCCCN)NC(=O)CNC(=O)[C@@H](NC(=O)[C@H](Cc1c[nH]cn1)NC(=O)[C@H](CCCCN)NC(=O)CNC(=O)[C@@H](NC(=O)[C@H](Cc1c[nH]cn1)NC(=O)[C@H](C)NC(=O)[C@H](C)NC(=O)[C@H](CCCCN)NC(=O)[C@H](CCCCN)NC(=O)[C@H](Cc1ccccc1)NC(=O)[C@H](Cc1ccccc1)NC(=O)[C@H](CO)NC(=O)CNC(=O)[C@H](Cc1c[nH]c2ccccc12)NC(=O)CN)C(C)C)C(C)C)[C@@H](C)O)C(=O)O [Pleu, Pleurocidin] (H-GWGSFFKKAAHVGKHVGKAALTHYL-OH)
1 µg/mL: MIC values of evolved MG1655, strain CHL80 (CHL80 (evolved MG1655)) | MIC values of evolved MG1655, strain TMP30 (TMP30 (evolved MG1655)) | MIC values of evolved MG1655, strain COL120 (COL120 (evolved MG1655)) | MIC values of evolved MG1655, strain AMP120 (AMP120 (evolved MG1655)) | MIC values of evolved MG1655, strain KAN80 (KAN80 (evolved MG1655); broth microdilution, kanamycin-evolved strain) | MIC values of evolved MG1655, strain DOX120 (DOX120 (evolved MG1655)) | MIC values of evolved MG1655, strain AZI120 (AZI120 (evolved MG1655)) | MIC values of evolved MG1655, strain NIT70 (NIT70 (evolved MG1655)) | MIC values of evolved MG1655, strain CIP120 (CIP120 (evolved MG1655))
2 µg/mL: MIC of MG1655 under the pressure of the same drug, generation 20 (E. coli K-12 MG1655; as E2, generation 20) | MIC of MG1655 under the pressure of the same drug, generation 30 (E. coli K-12 MG1655; as E2, generation 30) | MIC of MG1655 under the pressure of the same drug, generation 40 (E. coli K-12 MG1655; as E2, generation 40) | MIC of MG1655 under the pressure of the same drug, generation 50 (E. coli K-12 MG1655; as E2, generation 50) | MIC of MG1655 under the pressure of the same drug, generation 60 (E. coli K-12 MG1655; as E2, generation 60) | MIC of MG1655 under the pressure of the same drug, generation 70 (E. coli K-12 MG1655; as E2, generation 70) | MIC of MG1655 under the pressure of the same drug, generation 80 (E. coli K-12 MG1655; as E2, generation 80) | MIC of MG1655 under the pressure of the same drug, generation 90 (E. coli K-12 MG1655; as E2, generation 90) | MIC of MG1655 under the pressure of the same drug, generation 100 (E. coli K-12 MG1655; as E2, generation 100) | MIC of MG1655 under the pressure of the same drug, generation 110 (E. coli K-12 MG1655; as E2, generation 110) | MIC of MG1655 under the pressure of the same drug, generation 120 (E. coli K-12 MG1655; as E2, generation 120) | MIC of MG1655 under the pressure of the same drug, generation primary (E. coli K-12 MG1655; broth microdilution (CLSI), primary MG1655 before passage) | MIC of MG1655 under the pressure of the same drug, generation 10 (E. coli K-12 MG1655; broth microdilution, line passaged in MH broth with sub-inhibitory drug, 12 h per passage, 37℃, generation 10)
